From patent publication US11370779B2, “Pharmaceutical composition for preventing or treating acute myeloid leukemia or metastatic breast cancer” (PELEMED CO., LTD., priority 2017, dated 2022)
Structures can show the parent of a compound that is named as a salt.

Assays:
MV4;11 cells = experiment: Cell viability, EZ-Cytox tetrazolium assay, MV4;11; format: cell-based, human; conditions: Homo sapiens, MV4-11, 72 hours; for IC50: Table 1; for GI50: read-out: GI50(nM) MV4;11
Experimental: The cultured cells were incubated at 3° C. with 5% CO2.
(§1) Cell viability was assessed by a tetrazolium-based assay using the EZ-Cytox Cell Viability Assay kit (DaeilLab, Korea). Briefly, 2,000 to 15,000 cells were plated in 96-well plates in 100 μl of medium. The next day, the cells were treated with compounds together with dimethyl sulfoxide (DMSO) as a negative control. Three days (72 hours) after the drug addition, 15 μl of the EZ-Cytox kit reagent was added to each well of the 96-well plate and then incubated at 37° C. in a humidified CO2 incubator for 4 hours. After incubation, the optical density (OD) was measured at a wavelength of 450 nm using a Victor multilabel reader (Perkin Elmer, Waltham, Mass., USA).

FLT3 kinase = FLT3 kinase (Homo sapiens (Human), UniProt P36888); experiment: In vitro FLT3 kinase HTRF assay (Example 2); format: biochemical; conditions: Table 1; HTRF, recombinant FLT3 kinase domain, 500 μM ATP
Sequence of FLT3 kinase (P36888 610-943): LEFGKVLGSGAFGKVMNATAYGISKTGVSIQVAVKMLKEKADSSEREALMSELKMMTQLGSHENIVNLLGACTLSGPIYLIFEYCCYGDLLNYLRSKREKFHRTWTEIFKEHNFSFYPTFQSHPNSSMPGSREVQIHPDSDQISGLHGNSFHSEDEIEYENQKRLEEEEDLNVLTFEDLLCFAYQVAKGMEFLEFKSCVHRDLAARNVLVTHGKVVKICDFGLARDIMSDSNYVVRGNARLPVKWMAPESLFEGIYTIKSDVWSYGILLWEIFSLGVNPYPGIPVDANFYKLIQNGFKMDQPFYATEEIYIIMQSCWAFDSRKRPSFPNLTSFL
Experimental: Inhibition of the FLT3 kinase activity was measured using homogeneous, time-resolved fluorescence (HTRF) assays. Recombinant proteins containing the FLT3 kinase domain were purchased from Carna biosciences (Japan). Optimal enzyme, ATP, and substrate concentrations were established using the HTRF KinEASE kit (Cisbio, France) according to the manufacturer's instructions. The FLT3 enzymes were mixed in sequence with diluted compounds and peptide substrates in a kinase reaction buffer (50 mM HEPES (pH 7.0), 500 μM ATP, 0.1 mM sodium orthovanadate, 5 mM MgCl2, 1 mM DTT, 0.01% bovine serum albumin (BSA), and 0.02% NaN3). After the addition of the reagents for detection, the TR-FRET signal was measured using a Victor multilabel reader (Perkin Elmer, Waltham, Mass., USA). […] JAK2, JAK3, cMET, and RET in vitro kinase assays were also performed using the HTRF assay.

MDA-MB-231 = experiment: Cell viability, EZ-Cytox tetrazolium assay, MDA-MB-231; format: cell-based, human; conditions: Homo sapiens, MDA-MB-231; 72 hours
Experimental: MDA-MB-231 (metastatic breast cancer, ATCC HTB-26), Jurkat (human acute T lymphocytic leukemia, ATCC TIB-152), and K-562 (human chronic myelogenous leukemia, ATCC CCL-243) cells were cultured in RPMI-1640 (Sigma Co.). MCF7 (human breast adenocarcinoma, ATCC HTB-22) and PC-3 (human prostate adenocarcinoma, ATCC CRL-1435) cells were cultured in DMEM (Sigma Co.) medium supplemented with 10% fetal bovine serum and 1% penicillin/streptomycin. The cultured cells were incubated at 3° C. with 5% CO2.
as §1, with “USA). The IC50 was calculated by nonlinear regression using Prism version 5.01 (GraphPad, La Jolla, Calif., USA).” for “USA).”

IC50 (FLT3 kinase)	SMILES	IC50 (MV4;11 cells)	GI50 (MV4;11 cells)	GI50 (MDA-MB-231)
19 nM	COC(=O)c1ccc2c(c1)/C(=C1/Nc3ccccc3/C1=N\OCCBr)C(=O)N2 [Compound 2, Methyl (2Z,3E)-3-((2-bromoethoxy)imino)-2′-oxo-[2,3′-biindolinylidene]-5′-carboxylate]	51 nM		
5 nM	COC(=O)c1ccc2c(c1)/C(=C1/Nc3ccccc3/C1=N\OCCN)C(=O)N2 [Compound 3, Methyl (2Z,3E)-3-((2-aminoethoxy)imino)-2′-oxo-[2,3′-biindolinylidene]-5′-carboxylate hydrochloride]	15 nM		
	COC(=O)c1ccc2c(c1)/C(=C1/Nc3ccccc3/C1=N\OCCN1CCN(C)CC1)C(=O)N2 [Compound 5, Methyl (2Z,3E)-3-((2-(4-methylpiperazin-1-yl)ethoxy)imino)-2′-oxo-[2,3′-biindolinylidene]-5′-carboxylate dihydrochloride]	11 nM		
	COC(=O)c1ccc2c(c1)/C(=C1/Nc3ccccc3/C1=N\OCCN1CCOCC1)C(=O)N2 [Compound 6, Methyl (2Z,3E)-3-((2-morpholinoethoxy)imino)-2′-oxo-[2,3′-biindolinylidene]-5′-carboxylate hydrochloride]	53 nM		
	CN1CCN(CCO/N=C2/C(=C3/C(=O)Nc4ccc([N+](=O)[O-])cc43)Nc3ccc(O)cc32)CC1 [Compound 14, (2Z,3E)-5-hydroxy-3-((2-(4-methylpiperazin-1-yl)ethoxy)imino)-5′-nitro-[2,3′-biindolinylidene]-2′-one dihydrochloride]		50 nM	29.1 nM
	NCCO/N=C1/C(=C2/C(=O)Nc3ccc([N+](=O)[O-])cc32)Nc2ccccc21 [Compound 15, (2Z,3E)-3-((2-aminoethoxy)imino)-5′-nitro-[2,3′-biindolinylidene]-2′-one hydrochloride]			> 1 nM
	O=C1Nc2ccc([N+](=O)[O-])cc2/C1=C1/Nc2ccccc2/C1=N\OCCN1CCNCC1 [Compound 16, (2Z,3E)-5′-nitro-3-((2-(piperazin-1-yl)ethoxy)imino)-[2,3′-biindolinylidene]-2′-one dihydrochloride]		7.01 nM	74.3 nM
	O=C1Nc2ccc([N+](=O)[O-])cc2/C1=C1/Nc2ccc(F)cc2/C1=N\OCCN1CCNCC1 [Compound 17, (2Z,3E)-5-fluoro-5′-nitro-3-((2-(piperazin-1-yl)ethoxy)imino)-[2,3′-biindolinylidene]-2′-one dihydrochloride]		10.2 nM	88.8 nM
	CN1CCN(CCO/N=C2/C(=C3/C(=O)Nc4ccc([N+](=O)[O-])cc43)Nc3ccc(F)cc32)CC1 [Compound 18, (2Z,3E)-5-fluoro-3-((2-(4-methylpiperazin-1-yl)ethoxy)imino)-5′-nitro-[2,3′-biindolinylidene]-2′-one dihydrochloride]		118 nM	69.7 nM
	O=C1Nc2ccc([N+](=O)[O-])cc2/C1=C1/Nc2ccc(F)cc2/C1=N\OCCN1CCCCC1 [Compound 19, (2Z,3E)-5-fluoro-5′-nitro-3-((2-(piperidin-1-yl)ethoxy)imino)-[2,3′-biindolinylidene]-2′-one hydrochloride]		1.49 nM	804 nM
	O=C1Nc2ccc([N+](=O)[O-])cc2/C1=C1/Nc2ccc(F)cc2/C1=N\OCCN1CCCC1 [Compound 20, (2Z,3E)-5-fluoro-5′-nitro-3-((2-(pyrrolidin-1-yl)ethoxy)imino)-[2,3′-biindolinylidene]-2′-one hydrochloride]		447 nM	144 nM
	CN1CCN(CCO/N=C2/C(=C3/C(=O)Nc4ccc(F)cc43)Nc3ccc(F)cc32)CC1 [Compound 22, (2Z,3E)-5,5′-difluoro-3-((2-(4-methylpiperazin-1-yl)ethoxy)imino)-[2,3′-biindolinylidene]-2′-one dihydrochloride]			600 nM
	O=C1Nc2ccc(F)cc2/C1=C1/Nc2ccc(F)cc2/C1=N\OCCN1CCCCC1 [Compound 23, (2Z,3E)-5,5′-difluoro-3-((2-(piperidin-1-yl)ethoxy)imino)-[2,3′-biindolinylidene]-2′-one hydrochloride]		3.19 nM	> 1 nM
	O=C1Nc2ccc(F)cc2/C1=C1/Nc2ccc(F)cc2/C1=N\OCCN1CCCC1 [Compound 24, (2Z,3E)-5,5′-difluoro-3-((2-(pyrrolidin-1-yl)ethoxy)imino)-[2,3′-biindolinylidene]-2′-one hydrochloride]		634 nM	347 nM
	NC1CCN(CCO/N=C2/C(=C3/C(=O)Nc4ccc(F)cc43)Nc3ccc(F)cc32)CC1 [Compound 25, (2Z,3E)-3-((2-(4-aminopiperidin-1-yl)ethoxy)imino)-5,5′-difluoro-[2,3′-biindolinylidene]-2′-one dihydrochloride]		85.7 nM	> 1 nM
	CN1CCN(CCO/N=C2/C(=C3/C(=O)Nc4ccccc43)Nc3ccccc32)CC1 [Compound 29, (2Z,3E)-3-((2-(4-methylpiperazin-1-yl)ethoxy)imino)-[2,3′-biindolinylidene]-2′-one dihydrochloride]		54.8 nM	483 nM
	O=C1Nc2ccccc2/C1=C1/Nc2ccccc2/C1=N\OCCN1CCCCC1 [Compound 30, (2Z,3E)-3-((2-(piperidin-1-yl)ethoxy)imino)-[2,3′-biindolinylidene]-2′-one hydrochloride]		138 nM	> 1 nM
	O=C1Nc2ccccc2/C1=C1/Nc2ccccc2/C1=N\OCCN1CCCC1 [Compound 31, (2Z,3E)-3-((2-(pyrrolidin-1-yl)ethoxy)imino)-[2,3′-biindolinylidene]-2′-one hydrochloride]		104 nM	313 nM
	O=C1Nc2ccc(F)cc2/C1=C1/Nc2ccccc2/C1=N\OCCN1CCCCC1 [Compound 35, (2Z,3E)-5′-fluoro-3-((2-(piperidin-1-yl)ethoxy)imino)-[2,3′-biindolinylidene]-2′-one hydrochloride]		263 nM	805 nM
	O=C1Nc2ccc(Cl)cc2/C1=C1/Nc2ccccc2/C1=N\OCCN1CCNCC1 [Compound 38, (2Z,3E)-5′-chloro-3-((2-(piperazin-1-yl)ethoxy)imino)-[2,3′-biindolinylidene]-2′-one dihydrochloride]		11 nM	
	CN1CCN(CCO/N=C2/C(=C3/C(=O)Nc4ccc(Cl)cc43)Nc3ccccc32)CC1 [Compound 39, (2Z,3E)-5′-chloro-3-((2-(4-methylpiperazin-1-yl)ethoxy)imino)-[2,3′-biindolinylidene]-2′-one dihydrochloride]		37 nM	
	O=C1Nc2ccc(Br)cc2/C1=C1/Nc2ccccc2/C1=N\OCCN1CCNCC1 [Compound 40, (2Z,3E)-5′-bromo-3-((2-(piperazin-1-yl)ethoxy)imino)-[2,3′-biindolinylidene]-2′-one dihydrochloride]		10 nM	
	O=C1Nc2ccc(I)cc2/C1=C1/Nc2ccccc2/C1=N\OCCN1CCNCC1 [Compound 42, (2Z,3E)-5′-iodo-3-((2-(piperazin-1-yl)ethoxy)imino)-[2,3′-biindolinylidene]-2′-one dihydrochloride]		9 nM	
	CN1CCN(CCO/N=C2/C(=C3/C(=O)Nc4ccc(I)cc43)Nc3ccccc32)CC1 [Compound 43, (2Z,3E)-5′-iodo-3-((2-(4-methylpiperazin-1-yl)ethoxy)imino)-[2,3′-biindolinylidene]-2′-one dihydrochloride]		32 nM	
	COc1ccc2c(c1)/C(=C1/Nc3ccccc3/C1=N\OCCN1CCNCC1)C(=O)N2 [Compound 46, (2Z,3E)-5′-methoxy-3-((2-(piperazin-1-yl)ethoxy)imino)-[2,3′-biindolinylidene]-2′-one dihydrochloride]		17 nM	
	COc1ccc2c(c1)/C(=C1/Nc3ccccc3/C1=N\OCCN1CCN(C)CC1)C(=O)N2 [Compound 47, (2Z,3E)-5′-methoxy-3-((2-(4-methylpiperazin-1-yl)ethoxy)imino)-[2,3′-biindolinylidene]-2′-one dihydrochloride]		7 nM	
